Data taken from US10568876B2, “Tetrahydroisoquinoline derivatives useful as inhibitors of diacylglyceride O-acyltransferase 2” (Merck Sharp & Dohme Corp., priority 2014, dated 2020).

Target: hDGAT2 (Homo sapiens (Human), UniProt Q96PD7)
Test: DGAT2 Enzymatic Activity Assay
Type: biochemical
Settings: hDGAT2 Sf-9 membrane prep; 25 μM diolein, 10 μM oleoyl-CoA; triolein product by LC/MS/MS; read-out: IC50 values for inhibition of DGAT2
Summary of the method: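 Membranes from Sf-9 cells expressing untagged hDGAT2 (10 ng/μL) incubated at room temperature with 25 μM diolein and 10 μM oleoyl-CoA in 100 mM Tris pH 7.0, 20 mM MgCl2, 5% ethanol. Triolein product quantified by LC/MS/MS against spiked internal standard; IC50 from 4-parameter sigmoidal fit.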

Chain of hDGAT2 (Q96PD7 whole entry): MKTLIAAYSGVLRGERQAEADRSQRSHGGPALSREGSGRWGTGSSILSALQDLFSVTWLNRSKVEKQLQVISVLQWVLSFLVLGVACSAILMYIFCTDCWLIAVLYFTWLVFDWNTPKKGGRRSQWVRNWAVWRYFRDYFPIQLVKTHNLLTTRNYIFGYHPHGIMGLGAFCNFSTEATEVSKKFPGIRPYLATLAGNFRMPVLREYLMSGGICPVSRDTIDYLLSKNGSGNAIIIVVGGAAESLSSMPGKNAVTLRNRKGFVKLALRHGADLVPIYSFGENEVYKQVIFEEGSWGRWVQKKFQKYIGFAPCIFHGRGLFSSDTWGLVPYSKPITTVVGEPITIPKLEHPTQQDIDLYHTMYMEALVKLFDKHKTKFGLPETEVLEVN

Q: `CC(C)(C)NC(=O)N1CCc2c(-c3ccc4ncnn4c3)ccc(CNC(=O)[C@@H]3C[C@H]3c3ccccc3)c2C1` (relative stereo) [Example 29, 5-([1,2,4]triazolo[1,5-a]pyridin-6-yl)-N-(tert-butyl)-8-(((trans)-2-phenylcyclopropanecarboxamido)methyl)-3,4-dihydroisoquinoline-2(1H)-carboxamide] was tested. Which IC50 did it give?
A: 4640 nM

Q: Which IC50 does the source give for `CCCNC(=O)N1CCc2c(-c3cccc(C(F)(F)F)c3)ccc(CNC(=O)[C@@H]3C[C@H]3c3nc(C)no3)c2C1` (relative stereo) [Example 66, 8-(((trans)-2-(3-methyl-1,2,4-oxadiazol-5-yl)cyclopropanecarboxamido)methyl)-N-propyl-5-(3-(trifluoromethyl)phenyl)-3,4-dihydroisoquinoline-2(1H)-carboxamide] here?
A: 11.5 nM

Q: How did the IC50 turn out when `COC(=O)c1cccc(-c2ccc(CNC(=O)C3CC3c3ccccc3)c3c2CCN(C(=O)C2(C)CC2)C3)c1` (stereo not shown) [Example 132, methyl 3-(2-(1-methylcyclopropanecarbonyl)-8-((2-phenylcyclopropanecarboxamido)methyl)-1,2,3,4-tetrahydroisoquinolin-5-yl)benzoate] was run?
A: 522 nM

Q: For `COC(=O)c1cccc(-c2ccc(CNC(=O)C3CC3c3ccccc3)c3c2CCN(C(=O)C2CCC(C)CC2)C3)c1` (stereo not shown) [Example 137, methyl 3-(2-(4-methylcyclohexanecarbonyl)-8-((2-phenylcyclopropanecarboxamido)methyl)-1,2,3,4-tetrahydroisoquinolin-5-yl)benzoate], which IC50 is on record?
A: 3340 nM

Q: How did the IC50 turn out when `COc1cccc(-c2ccc(CNC(=O)[C@@H]3C[C@H]3c3ccccc3)c3c2CCN(C(=O)NC(C)(C)CC(C)(C)C)C3)c1` (relative stereo) [Example 61, 5-(3-methoxyphenyl)-8-(((trans)-2-phenylcyclopropanecarboxamido)methyl)-N-(2,4,4-trimethylpentan-2-yl)-3,4-dihydroisoquinoline-2(1H)-carboxamide] was run?
A: 500 nM

Q: For `CC(C)(C)NC(=O)N1CCc2c(-c3cccc(C(N)=O)c3)ccc(CNC(=O)[C@@H]3C[C@H]3c3ccccc3)c2C1` (relative stereo) [Example 42, N-(tert-butyl)-5-(3-carbamoylphenyl)-8-(((trans)-2-phenylcyclopropanecarboxamido)methyl)-3,4-dihydroisoquinoline-2(1H)-carboxamide], which IC50 is on record?
A: 155 nM

Q: For `Cc1noc([C@@H]2C[C@H]2C(=O)NCc2ccc(-c3cccc(OC(F)(F)F)c3)c3c2CN(C(=O)NC2COC2)CC3)n1` (relative stereo) [Example 73, 8-(((trans)-2-(3-methyl-1,2,4-oxadiazol-5-yl)cyclopropanecarboxamido)methyl)-N-(oxetan-3-yl)-5-(3-(trifluoromethoxy)phenyl)-3,4-dihydroisoquinoline-2(1H)-carboxamide], which IC50 is on record?
A: 52 nM

Q: For `COc1cccc(-c2ccc(CNC(=O)C3CC3c3ccccc3)c3c2CCN(S(C)(=O)=O)C3)c1` (stereo not shown) [Example 89, N-((5-(3-methoxyphenyl)-2-(methylsulfonyl)-1,2,3,4-tetrahydroisoquinolin-8-yl)methyl)-2-phenylcyclopropanecarboxamide], which IC50 is on record?
A: 2780 nM

Q: `COC(=O)c1cccc(-c2ccc(CNC(=O)C3CC3c3ccccc3)c3c2CCN(C(=O)C(C)C)C3)c1` (stereo not shown) [Example 130, methyl 3-(2-isobutyryl-8-((2-phenylcyclopropanecarboxamido)methyl)-1,2,3,4-tetrahydroisoquinolin-5-yl)benzoate] was tested. Which IC50 did it give?
A: 281 nM

Q: Which IC50 does the source give for `COC(=O)c1cccc(-c2ccc(CNC(=O)C3CC3c3nc(C)no3)c3c2CCN(C(=O)NC(C)(C)C)C3)c1` (stereo not shown) [Example 7, methyl 3-(2-(tert-butylcarbamoyl)-8-((2-(3-methyl-1,2,4-oxadiazol-5-yl)cyclopropanecarboxamido)methyl)-1,2,3,4-tetrahydroisoquinolin-5-yl)benzoate] here?
A: 15.5 nM

Q: `COC(=O)c1cccc(-c2ccc(CNC(=O)C3CC3c3ccccc3)c3c2CCN(C(=O)CC(F)(F)F)C3)c1` (stereo not shown) [Example 129, methyl 3-(8-((2-phenylcyclopropanecarboxamido)methyl)-2-(3,3,3-trifluoropropanoyl)-1,2,3,4-tetrahydroisoquinolin-5-yl)benzoate] was tested. Which IC50 did it give?
A: 1820 nM

Q: `CCN(CC)C(=O)CN1CCc2c(-c3cccc(OC(F)(F)F)c3)ccc(CNC(=O)C3CC3c3nc(C)no3)c2C1` (stereo not shown) [Example 81, N-((2-(2-(diethylamino)-2-oxoethyl)-5-(3-(trifluoromethoxy)phenyl)-1,2,3,4-tetrahydroisoquinolin-8-yl)methyl)-2-(3-methyl-1,2,4-oxadiazol-5-yl)cyclopropanecarboxamide] was tested. Which IC50 did it give?
A: 658 nM

Q: With `CC(C)(C)NC(=O)N1CCc2c(-c3cnn(-c4ccccc4)c3)ccc(CNC(=O)[C@@H]3C[C@H]3c3ccccc3)c2C1` (relative stereo) [Example 35, N-(tert-butyl)-5-(1-phenyl-1H-pyrazol-4-yl)-8-(((trans)-2-phenylcyclopropanecarboxamido)methyl)-3,4-dihydroisoquinoline-2(1H)-carboxamide] as the compound, how does the IC50 read?
A: 1170 nM

Q: `COC(=O)c1cccc(-c2ccc(CNC(=O)C3CC3c3ccccc3)c3c2CCN(C(=O)c2ccccc2)C3)c1` (stereo not shown) [Example 138, methyl 3-(2-benzoyl-8-((2-phenylcyclopropanecarboxamido)methyl)-1,2,3,4-tetrahydroisoquinolin-5-yl)benzoate] was tested. Which IC50 did it give?
A: 176 nM

Q: With `COC(=O)c1cccc(-c2ccc(CNC(=O)C3CC3c3ccccc3)c3c2CCN(C(=O)Cc2ccccc2)C3)c1` (stereo not shown) [Example 112, methyl 3-(2-(2-phenylacetyl)-8-((2-phenylcyclopropanecarboxamido)methyl)-1,2,3,4-tetrahydroisoquinolin-5-yl)benzoate] as the compound, how does the IC50 read?
A: 2930 nM

Q: `COC(=O)c1cccc(-c2ccc(CNC(=O)C3CC3c3ccccc3)c3c2CCN(C(=O)CC2CC2)C3)c1` (stereo not shown) [Example 125, methyl 3-(2-(2-cyclopropylacetyl)-8-((2-phenylcyclopropanecarboxamido)methyl)-1,2,3,4-tetrahydroisoquinolin-5-yl)benzoate] was tested. Which IC50 did it give?
A: 209 nM

Q: With `CC(C)(C)NC(=O)N1CCc2c(-c3cncc(C(C)(C)O)c3)ccc(CNC(=O)[C@@H]3C[C@H]3c3ccccc3)c2C1` (relative stereo) [Example 10, N-(tert-butyl)-5-(5-(2-hydroxypropan-2-yl)pyridin-3-yl)-8-(((trans)-2-phenylcyclopropanecarboxamido)methyl)-3,4-dihydroisoquinoline-2(1H)-carboxamide] as the compound, how does the IC50 read?
A: 166 nM

Q: `CC(C)(C)NC(=O)N1CCc2c(-c3cccc(C#N)c3)ccc(CNC(=O)[C@@H]3C[C@H]3c3ccccc3)c2C1` (relative stereo) [Example 22, N-(tert-butyl)-5-(3-cyanophenyl)-8-(((trans)-2-phenylcyclopropanecarboxamido)methyl)-3,4-dihydroisoquinoline-2(1H)-carboxamide] was tested. Which IC50 did it give?
A: 16.1 nM

Q: For `COC(=O)c1cccc(-c2ccc(CNC(=O)C3CC3c3ccccc3)c3c2CCN(C(=O)c2ccncc2)C3)c1` (stereo not shown) [Example 133, methyl 3-(2-isonicotinoyl-8-((2-phenylcyclopropanecarboxamido)methyl)-1,2,3,4-tetrahydroisoquinolin-5-yl)benzoate], which IC50 is on record?
A: 2510 nM
